The NIST ThermoML archive (doi:10.1016/j.fluid.2017.09.005)
Numbers after ± are expanded uncertainties.

Assay: xn = mol fraction of the nth substance listed
Conditions: Liquid; for mass density: Vibrating tube method

CCCO [propan-1-ol] + O
viscosity [mPa·s], Capillary tube (Ostwald / Ubbelohde) method
Conditions	x1 = 0.1	x1 = 0.2	x1 = 0.3	x1 = 0.4	x1 = 0.6	x1 = 0.8	x1 = 1
523.2 K, 20000 kPa	0.131 ± 0.004	0.129 ± 0.004	0.122 ± 0.004	0.121 ± 0.004	0.117 ± 0.004	0.114 ± 0.004	0.115 ± 0.003
523.2 K, 30000 kPa	0.138 ± 0.004	0.139 ± 0.004	0.134 ± 0.004	0.134 ± 0.004	0.132 ± 0.004	0.13 ± 0.004	0.134 ± 0.004
523.2 K, 40000 kPa	0.138 ± 0.004	0.146 ± 0.004	0.145 ± 0.004	0.146 ± 0.004	0.146 ± 0.004	0.146 ± 0.004	0.15 ± 0.004
573.2 K, 20000 kPa	0.088 ± 0.003	0.082 ± 0.003	0.076 ± 0.003	0.073 ± 0.003	0.07 ± 0.003	0.071 ± 0.003	0.073 ± 0.002
573.2 K, 30000 kPa	0.092 ± 0.003	0.09 ± 0.003	0.085 ± 0.003	0.084 ± 0.003	0.082 ± 0.003	0.083 ± 0.003	0.085 ± 0.003
573.2 K, 40000 kPa	0.098 ± 0.003	0.098 ± 0.003	0.096 ± 0.003	0.094 ± 0.003	0.095 ± 0.003	0.097 ± 0.003	0.098 ± 0.003
618.2 K, 20000 kPa	0.056 ± 0.002	0.042 ± 0.002	0.04 ± 0.002	0.042 ± 0.002	0.047 ± 0.002	0.052 ± 0.002	0.057 ± 0.002
618.2 K, 30000 kPa	0.077 ± 0.002	0.07 ± 0.002	0.066 ± 0.002	0.065 ± 0.002	0.066 ± 0.002	0.07 ± 0.002	0.073 ± 0.002
618.2 K, 40000 kPa	0.086 ± 0.002	0.082 ± 0.002	0.079 ± 0.002	0.079 ± 0.002	0.08 ± 0.002	0.084 ± 0.002	0.087 ± 0.002

mass density [kg/m3]
Conditions	x1 = 0.1	x1 = 0.2	x1 = 0.3	x1 = 0.4	x1 = 0.6	x1 = 0.8	x1 = 1
523.2 K, 20000 kPa	733.5 ± 3.2	682.3 ± 3.4	648 ± 3.5	624.3 ± 3.3	596 ± 3.2	582.1 ± 3	575.3 ± 2.9
523.2 K, 30000 kPa	749.8 ± 3	702.6 ± 3	672.3 ± 3	651 ± 2.9	626.2 ± 2.9	613.3 ± 2.8	606.8 ± 2.7
523.2 K, 40000 kPa	761.7 ± 3	718.6 ± 2.8	689.7 ± 3	670.3 ± 2.9	647.5 ± 2.9	635.6 ± 2.7	629.3 ± 2.7
573.2 K, 20000 kPa	637.8 ± 4.4	576.7 ± 4.8	538 ± 4.7	513.7 ± 4.4	492.5 ± 3.9	489.6 ± 3.7	494.3 ± 3.5
573.2 K, 30000 kPa	664.2 ± 3.7	614.7 ± 3.7	583 ± 3.7	564.2 ± 3.6	545.3 ± 3.5	540.2 ± 3.4	540.6 ± 3.3
573.2 K, 40000 kPa	685.8 ± 3.5	640.9 ± 3.5	613.2 ± 3.5	596.3 ± 3.5	578.8 ± 3.4	572.6 ± 3.3	572.1 ± 3.3
618.2 K, 20000 kPa	430.7 ± 5.6	324.4 ± 6.4	311.8 ± 6	325.6 ± 5.5	360.4 ± 4.7	393.7 ± 4.1	419.4 ± 3.9
618.2 K, 30000 kPa	557.7 ± 4.5	504.6 ± 4.6	479.5 ± 4.5	469.8 ± 4.4	469.3 ± 4.1	480.8 ± 3.9	491.7 ± 3.8
618.2 K, 40000 kPa	603.6 ± 4	561.4 ± 4.2	539.6 ± 3.9	529 ± 3.9	523.2 ± 3.8	528 ± 3.8	534.1 ± 3.7

O [water] + CCCO
viscosity [mPa·s], Capillary tube (Ostwald / Ubbelohde) method, x2 = 0
Conditions	523.2 K	573.2 K	618.2 K
20000 kPa	0.11 ± 0.003	0.09 ± 0.002	0.072 ± 0.002
30000 kPa	0.113 ± 0.003	0.093 ± 0.002	0.077 ± 0.002
40000 kPa	0.115 ± 0.003	0.096 ± 0.002	0.081 ± 0.002

mass density [kg/m3], x2 = 0
Conditions	523.2 K	573.2 K	618.2 K
20000 kPa	816.1 ± 2.8	734.8 ± 3.7	619.7 ± 4.4
30000 kPa	825.5 ± 2.8	750.7 ± 3.5	656.9 ± 4.2
40000 kPa	834.3 ± 2.7	764.4 ± 3.4	682.3 ± 4

O [water] + CCO
viscosity [mPa·s], Capillary tube (Ostwald / Ubbelohde) method, x2 = 0
Conditions	523.2 K	573.2 K	618.2 K
20000 kPa	0.11 ± 0.003	0.09 ± 0.002	0.072 ± 0.002
30000 kPa	0.113 ± 0.003	0.093 ± 0.002	0.077 ± 0.002
40000 kPa	0.115 ± 0.003	0.096 ± 0.002	0.081 ± 0.002

mass density [kg/m3], x2 = 0
Conditions	523.2 K	573.2 K	618.2 K
20000 kPa	816.1 ± 2.8	734.8 ± 3.7	619.7 ± 4.4
30000 kPa	825.5 ± 2.8	750.7 ± 3.5	656.9 ± 4.2
40000 kPa	834.3 ± 2.7	764.3 ± 3.4	682.3 ± 4

O [water] + CO
viscosity [mPa·s], Pressure drop in straight capillary, x2 = 0
Conditions	523.2 K	573.2 K	618.2 K
20000 kPa	0.11 ± 0.009	0.09 ± 0.008	0.072 ± 0.008
30000 kPa	0.113 ± 0.009	0.093 ± 0.008	0.077 ± 0.008
40000 kPa	0.115 ± 0.009	0.096 ± 0.009	0.081 ± 0.008

mass density [kg/m3], x2 = 0
Conditions	523.2 K	573.2 K	618.2 K
20000 kPa	816.1 ± 2.8	734.8 ± 3.7	619.7 ± 4.4
30000 kPa	825.5 ± 2.8	750.7 ± 3.5	656.9 ± 4.2
40000 kPa	834.3 ± 2.7	764.4 ± 3.4	682.3 ± 4
